According to patent US6472348B1, “Pyridone derivatives and herbicides” (Kumiai Chemical Industry Co., Ltd., priority 1996, dated 2002):

How the values were obtained:
corn (Ze) = assay: Test Example 11: crop plant selectivity by upland field foliage treatment (corn), phytotoxicity; conditions: upland field foliage treatment, dose 1.6 g ai/10a, 14th day after treatment
Method in brief: (§1)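 Corn and the weed species were sown together in sand-filled pots and grown in a greenhouse for 2 weeks before foliar treatment. Herbicidal effect was scored on day 14 after treatment against a graded standard scale, with corn phytotoxicity scored alongside.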

[1] = system: common lambsquarters (Ch); assay: Test Example 9: crop plant selectivity by upland field foliage treatment (wheat), herbicidal effects; assay type: in vivo; design: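 grade of growth control; 5 = at least 90%; 4 = 70 to 90%; 3 = 50 to 70%; 2 = 30 to 50%; 1 = 10 to 30%; 0 = under 10%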; conditions: dose 1.6 g ai/10a, 14th day after treatment
Method in brief: (§2)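 Wheat and broadleaf weeds were sown together in sand-filled pots and grown for 2 weeks in a greenhouse before foliar treatment. Herbicidal effect on weeds and phytotoxicity to wheat were scored visually against set grading standards on day 14 after treatment, with plants kept in the greenhouse.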

slender amaranth (Am) [2] = assay: as above; assay type: in vivo; design: scale not given here; conditions: dose 1.6 g ai/10a, 14th day after treatment
Method in brief: as §2

China jute (Ab) [3] = assay: as above; assay type: in vivo; design: scale not given here; conditions: dose 1.6 g ai/10a, 14th day after treatment
Method in brief: as §2

pale smartweed (Po) [4] = assay: as above; assay type: in vivo; design: scale not given here; conditions: dose 1.6 g ai/10a, 14th day after treatment
Method in brief: as §2

monochoria (Mo) = assay: Test Example 1: herbicidal effects by paddy field soil treatment; assay type: in vivo; conditions: 100 g of the active ingredient per 10 ares, 21st day after the application, index 0-5 of Table 47;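 also: grade of growth control; 5 = at least 90%; 4 = 70 to 90%; 3 = 50 to 70%; 2 = 30 to 50%; 1 = 10 to 30%; 0 = under 10%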
Method in brief: (§3)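 Greenhouse pot test in flooded paddy soil, dosed at 100 g a.i. per 10 ares; effect scored on day 21.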

barnyardgrass (Ec) [5] = assay: as above; assay type: in vivo; conditions: 100 g of the active ingredient per 10 ares, 21st day after the application, index 0-5 of Table 47
Method in brief: as §3

bulrush (Sc) = assay: as above; assay type: in vivo; conditions: 100 g of the active ingredient per 10 ares, 21st day after the application, index 0-5 of Table 47;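 also: grade of growth control; 5 = at least 90%; 4 = 70 to 90%; 3 = 50 to 70%; 2 = 30 to 50%; 1 = 10 to 30%; 0 = under 10%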
Method in brief: as §3

[6] = system: common lambsquarters (Ch); assay: Test Example 11: crop plant selectivity by upland field foliage treatment (corn), herbicidal effects; assay type: in vivo; design: scale not given here; conditions: upland field foliage treatment (corn test), dose 1.6 g ai/10a, 14th day after treatment
Method in brief: as §1

slender amaranth (Am) [7] = assay: as above; assay type: in vivo; design: scale not given here; conditions: upland field foliage treatment (corn test), dose 1.6 g ai/10a, 14th day after treatment
Method in brief: as §1

China jute (Ab) [8] = assay: as above; assay type: in vivo; design: scale not given here; conditions: upland field foliage treatment (corn test), dose 1.6 g ai/10a, 14th day after treatment
Method in brief: as §1

pale smartweed (Po) [9] = assay: as above; assay type: in vivo; design: scale not given here; conditions: upland field foliage treatment (corn test), dose 1.6 g ai/10a, 14th day after treatment
Method in brief: as §1

[10] = system: common lambsquarters (Ch); assay: Test Example 10: crop plant selectivity by upland field foliage treatment (soybean), herbicidal effects; assay type: in vivo; conditions: dose 1.6 g ai/10a, 14th day after treatment
Procedure: (§4) (Test on Crop Plant Selectivity by Upland Field Foliage Treatment)
(§5) In a plastic pot (surface area: 600 cm^2) filled with sand, soybean (Gl), pale smartweed (Po), slender amaranth (Am), common lambsquarters (Ch) and China jute (Ab) were sown and cultured in a green house for 2 weeks. […] The plants were then cultured in a green house, and the evaluation of the herbicidal effects and phytotoxicity was conducted on the 14th day after the treatment in accordance with the standards as identified in Table 47.

slender amaranth (Am) [11] = assay: as above; assay type: in vivo; conditions: dose 1.6 g ai/10a, 14th day after treatment
Procedure: as §4, §5

China jute (Ab) [12] = assay: as above; assay type: in vivo; conditions: dose 1.6 g ai/10a, 14th day after treatment
Procedure: as §4, §5

pale smartweed (Po) [13] = assay: as above; assay type: in vivo; conditions: dose 1.6 g ai/10a, 14th day after treatment
Procedure: as §4, §5

wheat (Tr) = assay: Test Example 9: crop plant selectivity by upland field foliage treatment (wheat), phytotoxicity; conditions: dose 1.6 g ai/10a, 14th day after treatment;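 also: grade of crop injury; 5 = at least 90%; 4 = 70 to 90%; 3 = 50 to 70%; 2 = 30 to 50%; 1 = 10 to 30%; 0 = under 10%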
Method in brief: as §2

Digitaria ciliaris (Di) = assay: Test Example 2: herbicidal effects by upland field soil treatment; assay type: in vivo; conditions: 100 g of the active ingredient per 10 ares, evaluated on the 21st day after application;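 also: grade of growth control; 5 = at least 90%; 4 = 70 to 90%; 3 = 50 to 70%; 2 = 30 to 50%; 1 = 10 to 30%; 0 = under 10%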
Description: (§6) (Test on Herbicidal Effects by Upland Field Soil Treatment)

[14] = system: common lambsquarters (Ch); assay: as above; assay type: in vivo; conditions: 100 g of the active ingredient per 10 ares, evaluated on the 21st day after application
Description: as §6

slender amaranth (Am) [15] = assay: as above; assay type: in vivo; conditions: 100 g of the active ingredient per 10 ares, evaluated on the 21st day after application
Description: as §6

pale smartweed (Po) [16] = assay: as above; assay type: in vivo; conditions: 100 g of the active ingredient per 10 ares, evaluated on the 21st day after application
Description: as §6

barnyardgrass (Ec) [17] = assay: as above; assay type: in vivo; conditions: 100 g of the active ingredient per 10 ares, evaluated on the 21st day after application
Description: as §6

rice flatsedge (Ci) [18] = assay: as above; assay type: in vivo; conditions: 100 g of the active ingredient per 10 ares, evaluated on the 21st day after application
Description: as §6

soybean (Gl) = assay: Test Example 10: crop plant selectivity by upland field foliage treatment (soybean), phytotoxicity; conditions: dose 1.6 g ai/10a, 14th day after treatment
Procedure: as §4, §5

[19] = system: common lambsquarters (Ch); assay: Test Example 3: herbicidal effects by upland field foliage treatment; assay type: in vivo; design: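 grade of growth control; 5 = at least 90%; 4 = 70 to 90%; 3 = 50 to 70%; 2 = 30 to 50%; 1 = 10 to 30%; 0 = under 10%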; conditions: 100 g active ingredient per 10 ares, evaluated 14th day after treatment
Method in brief: (§7)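 Scoring used a standard effect scale on the 14th day post-treatment, with plants held in a greenhouse throughout. Foliar application was made to weeds raised from seed in sand-filled pots for 2 weeks.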

slender amaranth (Am) [20] = assay: as above; assay type: in vivo; design: scale not given here; conditions: 100 g active ingredient per 10 ares, evaluated 14th day after treatment
Method in brief: as §7

pale smartweed (Po) [21] = assay: as above; assay type: in vivo; design: scale not given here; conditions: 100 g active ingredient per 10 ares, evaluated 14th day after treatment
Method in brief: as §7

Diaitaria ciliaris (Di) = assay: as above; assay type: in vivo; design: scale not given here; conditions: 100 g active ingredient per 10 ares, evaluated 14th day after treatment
Method in brief: as §7

barnyardgrass (Ec) [22] = assay: as above; assay type: in vivo; design: scale not given here; conditions: 100 g active ingredient per 10 ares, evaluated 14th day after treatment
Method in brief: as §7

rice flatsedge (Ci) [23] = assay: as above; assay type: in vivo; design: scale not given here; conditions: 100 g active ingredient per 10 ares, evaluated 14th day after treatment
Method in brief: as §7

| SMILES | Phytotoxicity Ze (corn (Ze)) | Herbicidal effects Ch [1] | Herbicidal effects Am (slender amaranth (Am) [2]) | Herbicidal effects Ab (China jute (Ab) [3]) | Herbicidal effects Po (pale smartweed (Po) [4]) | Herbicidal effects Mo (monochoria (Mo)) | Herbicidal effects Ec (barnyardgrass (Ec) [5]) | Herbicidal effects Sc (bulrush (Sc)) | Herbicidal effects Ch [6] | Herbicidal effects Am (slender amaranth (Am) [7]) | Herbicidal effects Ab (China jute (Ab) [8]) | Herbicidal effects Po (pale smartweed (Po) [9]) | Herbicidal effects Ch [10] | Herbicidal effects Am (slender amaranth (Am) [11]) | Herbicidal effects Ab (China jute (Ab) [12]) | Herbicidal effects Po (pale smartweed (Po) [13]) | Phytotoxicity Tr (wheat (Tr)) | Herbicidal effects Di (Digitaria ciliaris (Di)) | Herbicidal effects Ch [14] | Herbicidal effects Am (slender amaranth (Am) [15]) | further results |
| --- | --- | --- | --- | --- | --- | --- | --- | --- | --- | --- | --- | --- | --- | --- | --- | --- | --- | --- | --- | --- | --- |
| Cn1c(C(F)(F)F)ccc(-c2cc(C(=O)OC3CCCC3)c(Cl)cc2F)c1=O [Compound 1-184] | 1 | 5 | 5 | 5 | 5 | 5 | 5 | 5 | 5 | 5 | 5 | 5 | 5 | 5 | 5 | 5 | 2 | 5 | 5 | 5 | Herbicidal effects Po (pale smartweed (Po) [16]): 5; Herbicidal effects Ec (barnyardgrass (Ec) [17]): 5; Herbicidal effects Ci (rice flatsedge (Ci) [18]): 5; Phytotoxicity Gl (soybean (Gl)): 2; Herbicidal effects Ch [19]: 5; Herbicidal effects Am (slender amaranth (Am) [20]): 5; Herbicidal effects Po (pale smartweed (Po) [21]): 5; Herbicidal effects Di (Diaitaria ciliaris (Di)): 5; Herbicidal effects Ec (barnyardgrass (Ec) [22]): 5; Herbicidal effects Ci (rice flatsedge (Ci) [23]): 5 |
| CCCOCc1cc2c(-c3ccc(C(F)(F)F)n(C)c3=O)c(F)cc(Cl)c2o1 [Compound 4-32] | 2 | 5 | 5 | 5 | 5 | 5 | 5 | 5 | 5 | 5 | 5 | 5 | 5 | 5 | 5 | 5 | 2 | 5 | 5 | 5 | Herbicidal effects Po (pale smartweed (Po) [16]): 5; Herbicidal effects Ec (barnyardgrass (Ec) [17]): 5; Herbicidal effects Ci (rice flatsedge (Ci) [18]): 5; Phytotoxicity Gl (soybean (Gl)): 2; Herbicidal effects Ch [19]: 5; Herbicidal effects Am (slender amaranth (Am) [20]): 5; Herbicidal effects Po (pale smartweed (Po) [21]): 5; Herbicidal effects Di (Diaitaria ciliaris (Di)): 5; Herbicidal effects Ec (barnyardgrass (Ec) [22]): 5; Herbicidal effects Ci (rice flatsedge (Ci) [23]): 5 |
